# According to ChEMBL document CHEMBL4376829, “Discovery and biological evaluation of vinylsulfonamide derivatives as highly potent, covalent TEAD autopalmitoylation inhibitors” (Eur J Med Chem, 2019):
# The source made the active and inactive calls. No cut-off for these calls is given here.
# Key:
# [1] = biological target: ALK tyrosine kinase receptor (Homo sapiens) (UniProt Q9UM73); experiment: Inhibition of recombinant human ALK (1058 to end residues) at 10 uM using KKKSPGEYVNIEF as substrate after 40 mins in presence of [gamma33P]ATP by scintillation counting method relative to control
# [2] = biological target: Mitogen-activated protein kinase kinase kinase 10 (Homo sapiens) (UniProt Q02779); experiment: Inhibition of recombinant human MLK2 (1 to 449 residues) at 10 uM using myelin basic protein as substrate measured after 40 mins in presence of [gamma33P]ATP by scintillation counting method relative to control
# [3] = biological target: Tyrosine-protein kinase SYK (Homo sapiens) (UniProt P43405); experiment: Inhibition of full length recombinant human Syk at 10 uM using poly(Glu, Tyr) 4:1 as substrate after 40 mins in presence of [gamma33P]ATP by scintillation counting method relative to control
# [4] = biological target: Receptor-interacting serine/threonine-protein kinase 2 (Homo sapiens) (UniProt O43353); experiment: Inhibition of human RIPK2 (1 to 299 residues) at 10 uM using MBP as substrate measured after 120 mins in presence of [gamma33P]ATP by scintillation counting method relative to control
# [5] = biological target: Serine/threonine-protein kinase D3 (Homo sapiens) (UniProt O94806); experiment: Inhibition of full-length recombinant human PKD3 at 10 uM using KKLRRTLSVA as substrate after 40 mins by in presence of [gamma33P]ATP by scintillation counting method relative to control
# [6] = biological target: Tyrosine-protein kinase JAK2 (Homo sapiens) (UniProt O60674); experiment: Inhibition of recombinant human JAK2 (808 to end residues) at 10 uM using KTFCGTPEYLAPEVRREPRILSEEEQEMFRDFDYIADWC as substrate measured after 40 mins in presence of [gamm33P]ATP by scintillation counting method relative to control
# [7] = biological target: Ribosomal protein S6 kinase alpha-3 (Homo sapiens) (UniProt P51812); experiment: Inhibition of full length recombinant human Rsk2 (2 to end residues) at 10 uM using KKKNRTLSVA as substrate after 40 mins in presence of [gamma33P]ATP by scintillation counting method relative to control
# [8] = biological target: Cyclin-dependent kinase 14/Cyclin-Y (Homo sapiens) (UniProt O94921+Q8ND76); experiment: Inhibition of human CDK14/cyclinY at 10 uM by radiometric assay relative to control; assay type: protein-complex assay
# [9] = tested on: Glycogen synthase kinase-3 beta (Homo sapiens), P49841 [UNDEFINED MUTATION]; experiment: Inhibition of recombinant human GSK3beta H350L mutant (2 to end residues) at 10 uM using phospho GS2 peptide as substrate measured after 40 mins in presence of [gamma33P]ATP by scintillation counting method relative to control
# [10] = biological target: Transcriptional enhancer factor TEF-3 (Homo sapiens, UniProt Q15561); experiment: Inhibition of human HEK293T cells derived YAP interaction with N-terminal His-tagged human TEAD4 YBD domain (217 to 434 residues) expressed in Escherichia coli C43 (DE3) cells at 25 to 200 uM incubated for 2 hrs with TEAD4 followed by YAP lysate addition and measured after 4 hrs by immunoblotting analysis
# [11] = biological target: Tyrosine-protein kinase JAK3 (Homo sapiens) (UniProt P52333); experiment: Inhibition of recombinant human JAK3 (781 to end residues) at 10 uM using GGEEEEYFELVKKKK as substrate measured after 40 mins in presence of [gamm33P]ATP by scintillation counting method relative to control
# Homo sapiens [12] = organism: Homo sapiens; experiment: Inhibition of TEAD (unknown origin) expresssed in HEK293T cells assessed as reduction in luciferase activity at 10 to 20 uM by dual-luciferase reporter gene assay; assay type: cell-based
# [13] = biological target: Serine/threonine-protein kinase pim-2 (Homo sapiens) (UniProt Q9P1W9); experiment: Inhibition of recombinant human PIM2 (2 to end residues) at 10 uM using RSRHSSYPAGT as substrate measured after 40 mins in presence of [gamma33P]ATP by scintillation counting method relative to control
# [14] = GSH reactivity in PBS assessed as GSH adduct formation at 1 mM after 8 hrs by UPLC-MS analysis; assay type: physicochemical; settings: buffer, 1000 µM
# [15] = biological target: CDK4/Cyclin D3 (Homo sapiens) (UniProt P11802+P30281); experiment: Inhibition of recombinant full-length human CDK4/cyclinD3 at 10 uM using Rb fragment as substrate measured after 40 mins in presence of [gamma33P]ATP by scintillation counting method relative to control; assay type: protein-complex assay
# [16] = biological target: N-lysine methyltransferase SMYD2 (Homo sapiens) (UniProt Q9NRG4); experiment: Inhibition of human SMYD2 at 10 uM relative to control
# [17] = biological target: Insulin-like growth factor 1 receptor (Homo sapiens) (UniProt P08069); experiment: Inhibition of recombinant human IGF1R (959 to end residues) at 10 uM using KKKSPGEYVNIEFG as substrate after 40 mins in presence of [gamma33P]ATP by scintillation counting method relative to control
# Homo sapiens [18] = organism: Homo sapiens; experiment: Inhibition of full length recombinant human PRAK R291E mutant at 10 uM using KKLRRTLSVA as substrate after 40 mins in presence of [gamma33P]ATP by scintillation counting method relative to control
# [19] = biological target: Activated CDC42 kinase 1 (Homo sapiens) (UniProt Q07912); experiment: Inhibition of human ACK1 (1 to 389 residues) at 10 uM using EFPIYDFLPAKKK as substrate after 40 mins in presence of [gamma33P]ATP by scintillation counting method relative to control
# [20] = biological target: Tyrosine-protein kinase Fes/Fps (Homo sapiens) (UniProt P07332); experiment: Inhibition of recombinant human FES (2 to end residues) at 10 uM using poly(Glu, Tyr) 4:1 as substrate measured after 40 mins in presence of [gamma33P]ATP by scintillation counting method relative to control
# [21] = biological target: Tyrosine-protein kinase ITK/TSK (Homo sapiens) (UniProt Q08881); experiment: Inhibition of recombinant human ITK (352 to 617 residues) at 10 uM using myelin basic protein as substrate measured after 40 mins in presence of [gamm33P]ATP by scintillation counting method relative to control
# [22] = biological target: Mitogen-activated protein kinase 14 (Homo sapiens) (UniProt Q16539); experiment: Inhibition of recombinant full-length human SAPK2a at 10 uM using myelin basic protein as substrate measured after 40 mins in presence of [gamma33P]ATP by scintillation counting method relative to control
# [23] = biological target: CDK12/Cyclin K (Homo sapiens) (UniProt O75909+Q9NYV4); experiment: Inhibition of full-length recombinant human CDK12/cyclinK at 10 uM using RSRSRSRSRSRSRSR as substrate after 40 mins by in presence of [gamma33P]ATP by scintillation counting method relative to control; assay type: protein-complex assay
# [24] = biological target: Cytoplasmic tyrosine-protein kinase BMX (Homo sapiens) (UniProt P51813); experiment: Inhibition of full-length recombinant human BMX at 10 uM using poly(Glu, Tyr) 4:1 as substrate measured after 40 mins in presence of [gamma33P]ATP by scintillation counting method relative to control
# Sequence of Tyrosine-protein kinase JAK3 (Homo sapiens) (P52333 whole entry): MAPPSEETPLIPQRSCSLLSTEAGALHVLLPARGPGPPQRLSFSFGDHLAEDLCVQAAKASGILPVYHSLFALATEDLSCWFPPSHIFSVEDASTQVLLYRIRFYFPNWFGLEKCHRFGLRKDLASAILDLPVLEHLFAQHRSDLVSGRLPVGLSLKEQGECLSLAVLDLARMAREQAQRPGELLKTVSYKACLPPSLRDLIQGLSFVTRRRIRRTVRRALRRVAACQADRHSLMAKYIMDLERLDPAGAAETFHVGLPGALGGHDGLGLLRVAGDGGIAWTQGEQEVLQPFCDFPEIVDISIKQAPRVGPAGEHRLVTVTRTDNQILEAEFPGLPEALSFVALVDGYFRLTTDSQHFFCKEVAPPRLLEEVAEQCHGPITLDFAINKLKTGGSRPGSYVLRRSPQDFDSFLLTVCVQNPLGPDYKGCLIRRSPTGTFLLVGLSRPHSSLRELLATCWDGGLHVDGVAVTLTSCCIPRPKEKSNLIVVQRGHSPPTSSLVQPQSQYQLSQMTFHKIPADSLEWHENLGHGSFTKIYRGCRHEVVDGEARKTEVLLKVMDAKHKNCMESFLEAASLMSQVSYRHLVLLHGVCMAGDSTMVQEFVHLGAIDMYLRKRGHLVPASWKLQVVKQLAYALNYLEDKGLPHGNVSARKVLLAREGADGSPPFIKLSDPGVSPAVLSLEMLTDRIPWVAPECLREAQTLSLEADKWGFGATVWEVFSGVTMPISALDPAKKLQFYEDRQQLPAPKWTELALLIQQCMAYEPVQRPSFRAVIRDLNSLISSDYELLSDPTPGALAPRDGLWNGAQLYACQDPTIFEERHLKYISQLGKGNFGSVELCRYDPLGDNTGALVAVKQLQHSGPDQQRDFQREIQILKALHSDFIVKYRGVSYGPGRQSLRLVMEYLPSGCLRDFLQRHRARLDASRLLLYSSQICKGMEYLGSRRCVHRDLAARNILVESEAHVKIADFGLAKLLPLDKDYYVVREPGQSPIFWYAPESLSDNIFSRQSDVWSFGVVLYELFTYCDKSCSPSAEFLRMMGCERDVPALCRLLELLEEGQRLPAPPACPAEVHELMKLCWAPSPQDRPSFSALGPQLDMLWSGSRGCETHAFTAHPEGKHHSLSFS
# Sequence of Ribosomal protein S6 kinase alpha-3 (Homo sapiens) (P51812 whole entry): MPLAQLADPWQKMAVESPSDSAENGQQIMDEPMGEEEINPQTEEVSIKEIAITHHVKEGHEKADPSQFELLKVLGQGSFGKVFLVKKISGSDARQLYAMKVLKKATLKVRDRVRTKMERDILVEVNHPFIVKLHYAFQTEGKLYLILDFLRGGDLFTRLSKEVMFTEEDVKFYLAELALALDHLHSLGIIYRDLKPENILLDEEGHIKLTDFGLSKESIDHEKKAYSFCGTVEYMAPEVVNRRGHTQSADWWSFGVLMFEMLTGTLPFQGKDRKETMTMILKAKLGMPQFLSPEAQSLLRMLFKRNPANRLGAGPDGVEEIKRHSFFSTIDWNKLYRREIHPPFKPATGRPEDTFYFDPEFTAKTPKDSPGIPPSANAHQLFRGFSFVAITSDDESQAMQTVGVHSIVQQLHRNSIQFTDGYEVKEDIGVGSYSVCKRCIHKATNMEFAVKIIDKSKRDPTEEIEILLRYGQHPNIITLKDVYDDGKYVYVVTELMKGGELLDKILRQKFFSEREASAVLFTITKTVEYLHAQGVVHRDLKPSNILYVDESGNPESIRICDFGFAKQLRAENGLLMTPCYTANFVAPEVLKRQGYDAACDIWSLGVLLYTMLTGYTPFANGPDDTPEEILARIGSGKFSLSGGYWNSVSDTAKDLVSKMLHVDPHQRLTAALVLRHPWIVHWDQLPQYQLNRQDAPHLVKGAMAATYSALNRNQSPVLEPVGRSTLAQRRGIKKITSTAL
# Sequence of CDK12/Cyclin K (Homo sapiens) (O75909 whole entry, looked up): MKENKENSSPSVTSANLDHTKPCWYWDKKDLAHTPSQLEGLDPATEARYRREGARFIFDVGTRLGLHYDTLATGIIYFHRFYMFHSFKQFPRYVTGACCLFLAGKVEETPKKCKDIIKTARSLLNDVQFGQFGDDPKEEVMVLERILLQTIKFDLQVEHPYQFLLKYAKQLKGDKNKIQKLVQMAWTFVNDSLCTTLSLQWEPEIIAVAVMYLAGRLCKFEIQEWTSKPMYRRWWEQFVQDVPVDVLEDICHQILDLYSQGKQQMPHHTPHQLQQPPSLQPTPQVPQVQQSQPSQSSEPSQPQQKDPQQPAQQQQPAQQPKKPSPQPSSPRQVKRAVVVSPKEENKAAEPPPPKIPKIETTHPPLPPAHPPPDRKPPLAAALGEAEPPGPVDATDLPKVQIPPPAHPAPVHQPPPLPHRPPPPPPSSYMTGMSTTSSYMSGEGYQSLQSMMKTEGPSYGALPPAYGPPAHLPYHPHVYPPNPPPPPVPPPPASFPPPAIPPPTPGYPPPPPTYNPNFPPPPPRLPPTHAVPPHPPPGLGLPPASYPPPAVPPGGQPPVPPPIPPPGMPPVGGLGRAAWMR
# Sequence of CDK12/Cyclin K (Homo sapiens) (Q9NYV4 whole entry, looked up): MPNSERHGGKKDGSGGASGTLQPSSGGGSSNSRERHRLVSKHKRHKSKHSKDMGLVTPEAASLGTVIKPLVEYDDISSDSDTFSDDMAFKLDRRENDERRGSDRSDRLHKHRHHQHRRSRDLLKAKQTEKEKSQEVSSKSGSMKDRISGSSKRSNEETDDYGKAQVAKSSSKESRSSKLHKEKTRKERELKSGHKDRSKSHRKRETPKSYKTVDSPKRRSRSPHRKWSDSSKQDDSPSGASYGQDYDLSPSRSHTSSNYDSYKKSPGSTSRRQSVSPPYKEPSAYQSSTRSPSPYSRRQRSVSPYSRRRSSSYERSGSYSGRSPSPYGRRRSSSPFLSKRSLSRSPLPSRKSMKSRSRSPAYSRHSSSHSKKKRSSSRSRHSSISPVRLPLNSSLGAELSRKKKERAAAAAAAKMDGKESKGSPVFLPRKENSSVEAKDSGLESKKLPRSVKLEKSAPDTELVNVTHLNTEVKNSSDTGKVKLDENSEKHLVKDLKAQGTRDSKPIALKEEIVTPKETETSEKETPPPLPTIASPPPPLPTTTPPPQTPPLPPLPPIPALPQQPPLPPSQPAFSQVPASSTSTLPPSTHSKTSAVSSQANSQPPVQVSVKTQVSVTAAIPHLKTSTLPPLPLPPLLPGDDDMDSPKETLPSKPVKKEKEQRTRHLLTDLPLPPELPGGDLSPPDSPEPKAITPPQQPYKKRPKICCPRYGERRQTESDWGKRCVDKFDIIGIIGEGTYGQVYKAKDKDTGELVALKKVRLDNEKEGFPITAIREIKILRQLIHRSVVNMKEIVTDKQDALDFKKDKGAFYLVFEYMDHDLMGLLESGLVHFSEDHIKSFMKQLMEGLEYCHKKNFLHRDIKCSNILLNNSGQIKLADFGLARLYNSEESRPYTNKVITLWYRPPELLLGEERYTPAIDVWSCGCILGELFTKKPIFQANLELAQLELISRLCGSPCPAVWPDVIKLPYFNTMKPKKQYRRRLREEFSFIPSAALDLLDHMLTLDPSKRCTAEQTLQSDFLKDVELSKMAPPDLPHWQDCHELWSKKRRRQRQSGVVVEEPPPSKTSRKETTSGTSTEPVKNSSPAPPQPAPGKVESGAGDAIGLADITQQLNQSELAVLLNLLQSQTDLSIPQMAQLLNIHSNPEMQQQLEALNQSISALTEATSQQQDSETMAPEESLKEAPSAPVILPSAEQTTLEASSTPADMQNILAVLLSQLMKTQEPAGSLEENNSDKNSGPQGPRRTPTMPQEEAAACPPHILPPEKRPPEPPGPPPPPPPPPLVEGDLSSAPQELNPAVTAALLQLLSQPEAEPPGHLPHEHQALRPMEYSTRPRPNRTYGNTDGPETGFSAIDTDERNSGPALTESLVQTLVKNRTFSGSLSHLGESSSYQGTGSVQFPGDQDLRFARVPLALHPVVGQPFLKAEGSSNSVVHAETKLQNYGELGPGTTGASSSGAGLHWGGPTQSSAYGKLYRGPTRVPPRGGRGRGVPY
# Sequence of Serine/threonine-protein kinase pim-2 (Homo sapiens) (Q9P1W9 whole entry, looked up): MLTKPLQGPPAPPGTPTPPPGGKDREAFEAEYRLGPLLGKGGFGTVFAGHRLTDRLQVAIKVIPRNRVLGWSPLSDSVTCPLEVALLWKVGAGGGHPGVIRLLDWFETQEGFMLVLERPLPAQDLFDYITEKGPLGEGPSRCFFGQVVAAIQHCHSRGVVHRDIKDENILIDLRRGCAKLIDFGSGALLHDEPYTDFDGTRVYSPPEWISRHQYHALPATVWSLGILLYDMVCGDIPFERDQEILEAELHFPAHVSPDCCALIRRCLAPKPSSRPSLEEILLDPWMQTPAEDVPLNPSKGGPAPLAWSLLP
# Sequence of Glycogen synthase kinase-3 beta (Homo sapiens), P49841 [UNDEFINED MUTATION] (P49841 whole entry, looked up, stated change not applied, the tested form may be a part): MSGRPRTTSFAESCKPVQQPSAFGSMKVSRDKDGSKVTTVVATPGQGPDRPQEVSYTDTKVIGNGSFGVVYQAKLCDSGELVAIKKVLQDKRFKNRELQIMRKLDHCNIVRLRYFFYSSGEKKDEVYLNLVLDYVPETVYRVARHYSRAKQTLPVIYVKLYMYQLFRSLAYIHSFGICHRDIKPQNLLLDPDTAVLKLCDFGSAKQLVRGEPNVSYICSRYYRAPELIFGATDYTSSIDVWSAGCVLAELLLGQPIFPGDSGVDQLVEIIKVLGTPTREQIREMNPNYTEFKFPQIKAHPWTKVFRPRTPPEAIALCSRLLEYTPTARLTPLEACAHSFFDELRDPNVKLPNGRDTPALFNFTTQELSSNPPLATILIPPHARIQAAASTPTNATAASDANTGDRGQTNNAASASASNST
# Sequence of Mitogen-activated protein kinase 14 (Homo sapiens) (Q16539 whole entry): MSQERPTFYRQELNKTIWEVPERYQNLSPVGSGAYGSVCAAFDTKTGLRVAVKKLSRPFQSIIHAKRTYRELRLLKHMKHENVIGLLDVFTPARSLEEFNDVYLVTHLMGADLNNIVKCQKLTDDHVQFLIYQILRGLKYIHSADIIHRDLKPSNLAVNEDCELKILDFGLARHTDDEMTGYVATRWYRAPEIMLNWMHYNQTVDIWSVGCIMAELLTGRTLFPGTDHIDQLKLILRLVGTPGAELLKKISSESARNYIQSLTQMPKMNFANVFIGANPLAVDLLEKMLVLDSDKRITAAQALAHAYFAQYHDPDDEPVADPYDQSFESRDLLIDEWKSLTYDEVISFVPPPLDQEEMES
smiles,measurement,setting,value
C=CS(=O)(=O)Nc1ccc(Cc2ccc3ccccc3c2)cc1,inhibition,[1],0%
same,inhibition,[2],2%
same,inhibition,[3],-4%
same,inhibition,[4],6%
same,inhibition,[5],22%
same,inhibition,[6],6%
same,inhibition,[7],-3%
same,inhibition,[8],1%
same,inhibition,[9],-2%
same,inhibition,[10],Active
same,inhibition,[11],5%
same,inhibition,Homo sapiens [12],Active
same,inhibition,[13],13%
same,Activity,[14],Not Active
same,inhibition,[15],11%
same,inhibition,[16],3%
same,inhibition,[17],-6%
same,inhibition,Homo sapiens [18],2%
same,inhibition,[19],10%
same,inhibition,[20],0%
same,inhibition,[21],6%
same,inhibition,[22],10%
same,inhibition,[23],11%
same,inhibition,[24],19%
